Primed or numbered codes have the meaning given here. Ends that are not written are not given here. PEG2′ = not defined here
Experiments:
[1] = tested on: proteolytic cleavage of Probe #102 (cathepsin L, CTSL); test: protease inhibitor profiling of Probe #102 cleavage in NASH and healthy plasma; assay type: biochemical, mice; settings: for effect on Probe #102 signal: NASH and healthy plasma
Procedure: For this experiment, all plasma samples were prepared individually and diluted 1/10e in PBS with inhibitor added directly to the samples. Inhibitor was prepared at 15× concentration to final. Substrates were diluted in DI water at 18 uM, such that the final concentration on the plate would be 6 uM. All samples were prepared such that their last dilution on the plate would not affect the desired final concentration. 10 ul of each individual sample was pipetted into their corresponding wells, and the plate was then spun down in the centrifuge at 1500 RPM for 30 seconds to coat the bottom of each well with the sample. 5 ul of the 18 uM substrate solution was pipetted into each well being used on a 384 well plate, and then the plate was spun down in the centrifuge at 1500 rpm for 30 seconds. The plate was placed immediately in the plate reader at 37° C. for a 30-minute-long fluorescence kinetic read at 485/535 extended gain.
To assess the proteolytic cleavage pattern of Probe #102, samples were tested using a pool of broad inhibitors for serine, cysteine, threonine, MMP and aspartic protease family members (broad inhibitor) to assess general protease activity, AEBSF for serine proteases, E64 for cysteine proteases, CTSi for broad cathepsin inhibition of cathepsins L, S, K and B, or specific inhibitors for cathepsin K (L00625), for cathepsin L (SID) or cathepsin B (CA074).

[2] = tested on: carboxylesterase 1, phospholipase A2 and lipoprotein lipase; test: spiked recombinant enzymes in human plasma with resorufin oleate as substrate; assay type: biochemical
[3] = tested on: cathepsin and/or MMP protease activities; test: probe cleavage in plasma of healthy, NASH regression and NASH progression mice; assay type: biochemical; settings: K2 EDTA plasma at 20 weeks
Text: Plasma samples were collected from all animals at 20 weeks.
The probes showing the most differentiation in NASH were linked to cathepsin and/or MMP protease activities.

caspase activity = test: ex vivo probe cleavage in plasma of Jo2 fulminant hepatitis mice; assay type: biochemical; settings: mouse plasma 3 hours after Jo2 injection
Procedure: Fulminant hepatitis is induced after injection intraperitoneal of monoclonal antibody anti-CD95 (Jo2, BD biosciences, 4 ug/animal), and mouse plasma samples were collected 3 hours after Jo2 injection.

Granzyme B = test: probe cleavage in COVID positive and COVID negative swab samples; assay type: biochemical
NASH-related proteases = test: ex vivo fluorescent probe cleavage (RFU/min) in K2 EDTA plasma, NASH (CDAHFD) vs healthy (CD) mice; assay type: biochemical; settings: n=10 samples and pooled plasma
Procedure: All animals were used in accordance with animal care guidelines. Plasma was obtained from these blood samples by centrifugation at 3,500 RPM for 20 min at 4° C. The plasma was stored at −80° C. until it was needed for experimental purposes.
Samples were mixed with protease substrates and quenchers/reporters in 96-well plates. The 96-well plates were read on a Biotech Synergy H1, using 465,535 excitation/emission settings.
Probes measuring cathepsin activity were 3-fold higher in protease cleavage kinetics in mice with NASH compared to healthy mice.
A single plasma sample was contacted with the probes for each predetermined protease to provide a multiplex assessment of protease activity in the sample.

[4] = tested on: host response and SARS-COV2 proteases; test: probe cleavage in K2 EDTA and Lithium Heparin plasma, COVID vs healthy; assay type: biochemical
[5] = K2 EDTA and Lithium Heparin plasma sets

CN1CCN(c2nc(-c3ccc(C(=O)NC4(C(=O)NCC#N)CCCCC4)cc3)cs2)CC1 [Probe L006235]
effect on Probe #102 signal [1]: did not significantly decrease signal

CCCC(=O)O [butyrate]
suitability as substrate for enzyme detection [2]: promising for detection of broad range of enzymes

Resorufin oleate
suitability as substrate for enzyme detection [2]: promising for detection of broad range of enzymes

CCCNC(=O)[C@H]1O[C@@H]1C(=O)N[C@H](C(=O)N1CCC[C@H]1C(=O)O)[C@@H](C)CC [CA074]
effect on Probe #102 signal [1]: did not significantly decrease signal

Probe #520: probe differentiating healthy, regression and NASH plasma samples (GKPISLISSG; not fully specified; 5FAM, K(CPQ2), PEG2-GC)
differentiation among healthy, regression and NASH plasma samples [3]: can differentiate

NCCc1ccc(S(=O)(=O)F)cc1 [AEBSF]
decrease of NASH signal ([1]; Probe #102, NASH plasma): 65% | decrease of healthy signal ([1]; Probe #102, healthy plasma): 60%

Probe #8: Caspase centric probe (VDVAD; not fully specified; 5-FAM, CPQ2 quencher, PEG2, D-Lys-D-Lys-GC)
contrast between healthy and Jo2 samples (caspase activity): contrast that is specific and sensitive to the Jo2 model

Probe #647: Caspase centric probe; signal measures the activity of protease Granzyme B (GAIEPDSGG; also: 5FAM (position not given here), Lys(CPQ2) (position not given here), PEG2, D-Lys-D-Lys, GC-NH2 (attachment not given here))
differentiation among healthy, regression and NASH plasma samples [3]: can differentiate | contrast between healthy and Jo2 samples (caspase activity): contrast that is specific and sensitive to the Jo2 model | number of active samples, COVID+ (Granzyme B; adjusted RFU across timepoints, COVID+): 7 samples | number of active samples, COVID- (Granzyme B; adjusted RFU across timepoints, COVID-): 1 samples | protease whose activity the probe signal measures (Granzyme B; inhibition experiments, healthy vs COVID samples): measures the activity of protease Granzyme B | differentiation between COVID+ and COVID- samples (Granzyme B; swab samples in saline): key differentiator

Probe #102: a CTSL sensing probe; fluorescent reporter and quencher peptide probe (GKPILFFRLKG; also: FAM (position not given here), K(CPQ2) quencher (position not given here), PEG2-kk-GC (attachment not given here))
differentiation among healthy, regression and NASH plasma samples [3]: can differentiate | protease whose activity the probe responds to ([1]; inhibitor experiments FIG. 30D-F): specifically responds to the activity of cathepsin L (CTSL) | what the measured rate of fluorescence increase is ascribed to (NASH-related proteases): can be ascribed to protease activity and to NASH disease

Probe #409: the SARS CoV2 coronavirus substrate (SARS-COV2 3C protease) (GTSAVLQSGFRKGK; also: 5-FAM, CPQ2 quencher, PEG2-kk-GC, places not given here)
differential cleavage between COVID and healthy samples ([4]; K2 EDTA samples): modest contrast

Probe #428: probe differentiating healthy, regression and NASH plasma samples ({FAM}-GDRRKKLTQG-{K(CPQ2)-PEG2′-dK-dK-Gly-Cys}; not fully specified; printed as (FAM)-GDRRKKLTQG-K(CPQ2)-(PEG2)-DLys-DLys-GC)
differentiation among healthy, regression and NASH plasma samples [3]: can differentiate

Probe #18: a Neutrophil elastase substrate (GAAPVGK; also: 5-FAM, CPQ2 quencher, PEG2-kk-GC, places not given here)
differential cleavage between COVID and healthy samples [4, 5]: demonstrated contrast in both sets

Probe #462: a MMP8 substrate (GKKAKRNALG; also: FAM (position not given here), K(CPQ2) (position not given here), PEG2, D-Lys-D-Lys-GC (attachment not given here))
differential cleavage between COVID and healthy samples [4, 5]: demonstrated contrast in both sets

Probe #84: a Furin substrate (GRVKRGLAGK; also: 5-FAM, CPQ2 quencher, PEG2-kk-GC, places not given here)
differential cleavage between COVID and healthy samples [4, 5]: demonstrated contrast in both sets

Probe #492: probe whose fluorescence increase is ascribed to protease activity and NASH disease in mice plasma ({FAM}-GQRANSIRVTWG-{K(CPQ2)-PEG2′-dK-dK-Gly-Cys}; not fully specified; printed as (FAM)-GQRANSIRVTWG-K(CPQ2)-(PEG2)-DLys-DLys-GC)
differentiation among healthy, regression and NASH plasma samples [3]: can differentiate | what the measured rate of fluorescence increase is ascribed to (NASH-related proteases): can be ascribed to protease activity and to NASH disease

Probe #96: probe differentiating healthy, regression and NASH plasma samples ({FAM}-GRPLALWESQG-{K(CPQ2)-PEG2′-dK-Gly-Cys}; not fully specified; printed as (FAM)-GRPLALWESQG-K(CPQ2)-PEG2-k-GC)
differentiation among healthy, regression and NASH plasma samples [3]: can differentiate

CC(C)C[C@H](NC(=O)[C@H]1O[C@@H]1C(=O)O)C(=O)NCCCCN=C(N)N [Probe E64, E64]
effect on Probe #102 signal [1]: decreased NASH signal significantly

Source: patent publication US20250092437A1, “DISEASE DETECTION WITH COMBINATORIAL BIOMARKERS” (priority 2021, published 2025)
